The values that follow come from patent US20110160223A1, “NMDA Receptor Antagonists for the Treatment of Neuropsychiatric Disorders” (priority 2008, published 2011).

Where two headings read alike, the source gives them in different places.

The nature of data set [1]: Brain exposure (brain:plasma ratio, Table 24). In kind it is in vivo, Rats. To be noted: 1 MPK i.v. The method, then:
Animals were fasted overnight prior to dose administration and food returned to the animals two hours after dosing. Following IV dosing, blood samples (ca 200 μL) were collected into separate tubes containing anticoagulant (K-EDTA) via the orbital plexus at various times post administration. Plasma samples were prepared immediately after collection by centrifugation for ten minutes using a tabletop centrifuge, and stored at −80° C. Brain tissue was weighed, homogenized on ice in 50 mM phosphate buffer (2 ml per brain) and the homogenate stored at −80° C. Plasma and brain homogenate samples were extracted by the addition of 5 volumes of cold acetonitrile, mixed well by vortexing and centrifuged at 4000 rpm for 15 minutes. The supernatant fractions were analyzed by LC-MS/MS operating in multiple reaction monitoring mode (MRM). The amount of parent compound in each sample was calculated by comparing the response of the analyte in the sample to that of a standard curve.

Data set [2] deals with MDR1-MDCK cell monolayers that express the multidrug transporter P-gp. The data set can be described thus: In vitro cell permeability assay to predict brain penetration potential. Format: in vitro ADME. The arrangement: key: High: when Papp A−B≧3.0×10−6 cm/s, and efflux<3.0; Moderate: when Papp A−B≧3.0×10−6 cm/s, and 10>efflux≧3.0; Low: when either Papp A−B≧3.0×10−6 cm/s, and efflux≧10, or when Papp A−B<3.0×10−6 cm/s. To be noted: 5 μM, pH 7.4, 2 hr, from Papp A-B and efflux ratio. The method, then:
Penetration Classification (Table 24) using the in vitro cell permeability assay to predict bran penetration potential: Transwell® wells containing MDR1-MDCK cell monolayers that express the multidrug transporter P-gp were used for measuring the percent recovery of compound after dosing both sides of a cell monolayer with the test article. Monolayers were grown for 7-11 days at which time 5 μM of the test article was made by dilution from DMSO stocks into a Hank's balanced salt solution (pH 7.4), final DMSO not greater than 1%, and added to: a) the apical side for A-B permeability (apical to basal) assessment, or separately b) the basal side for the B-A permeability (basal to apical) assessment, all at pH 7.4. After a 2 hr incubation (37° C.) both the apical and the basal compartments were sampled and the amount of test article present determined by generic LC-MS/MS methods against a ≧4 point calibration curve. Experiments were done in duplicate. Apparent permeability (Papp units are reported×10−6 cm/s) are determined for the A−B and the B−A directions as well as the Efflux ratio (PappB−A/Papp A−B). The blood-brain barrier penetration potential is classified as follows: “High” when Papp A−B≧3.0×10−6 cm/s, and efflux<3.0; “Moderate” when Papp A−B≧3.0×10−6 cm/s, and 10>efflux≧3.0; and “Low” when either Papp A−B≧3.0×10−6 cm/s, and efflux≧10, or when Papp A−B<3.0×10−6 cm/s.

The target in data set [3] is NMDA receptor (NR1 + NR2 subunits) (Rattus norvegicus, UniProt P35439+Q00960). The data set can be described thus: Two electrode voltage clamp recording from Xenopus laevis oocytes (pH dependence of NMDA antagonism). In kind it is cell-based. Particulars: Table 22. The method, then:
cRNA was synthesized from linearized template cDNA for rat glutamate receptor subunits according to manufacturer specifications (Ambion). Quality of synthesized cRNA was assessed by gel electrophoresis, and quantity was estimated by spectroscopy and gel electrophoresis. Stage V and VI oocytes were surgically removed from the ovaries of large, well-fed and healthy Xenopus laevis anesthetized with 3-amino-benzoic acid ethyl ester (3 gm/l) as previously described. Clusters of isolated oocytes were incubated with 292 U/ml Worthington (Freehold, N.J.) type IV collagenase or 1.3 mg/ml collagenase (Life Technologies, Gaithersburg, Md.; 17018-029) for 2 hr in Ca^2+-free solution comprised of (in mM) 115 NaCl, 2.5 KCl, and 10 HEPES, pH 7.5, with slow agitation to remove the follicular cell layer. Oocytes were then washed extensively in the same solution supplemented with 1.8 mM CaCl2 and maintained in Barth's solution comprised of (in mM): 88 NaCl, 1 KCl, 2.4 NaHCO3, 10 HEPES, 0.82 MgSO4, 0.33 Ca(NO3)2, and 0.91 CaCl2 and supplemented with 100 μg/ml gentamycin, 10 μg/ml streptomycin, and 10 μg/ml penicillin. Oocytes were manually defolliculated and injected within 24 hrs of isolation with 3-5 ng of NR1 subunit cRNA and 7-10 ng of NR2 cRNA subunit in a 50 nl volume, or 5-10 ng of AMPA or kainate receptor cRNAs in a 50 nl volume, and incubated in Barth's solution at 18° C. for 1-7 d. Glass injection pipettes had tip sizes ranging from 10-20 microns, and were backfilled with mineral oil.
Two electrode voltage-clamp recordings were made 2-7 days post-injection as previously described. Oocytes were placed in a dual-track plexiglass recording chamber with a single perfusion line that splits in a Y-configuration to perfuse two oocytes. Dual recordings were made at room temperature (23° C.) using two Warner OC725B two-electrode voltage clamp amplifiers, arranged as recommended by the manufacturer. Glass microelectrodes (1-10 Megaohms) were filled with 300 mM KCl (voltage electrode) or 3 M KCl (current electrode). The bath clamps communicated across silver chloride wires placed into each side of the recording chamber, both of which were assumed to be at a reference potential of 0 mV. Oocytes were perfused with a solution comprised of (in mM) 90 NaCl, 1 KCl, 10 HEPES, and 0.5 BaCl2; pH was adjusted by addition of 1-3 M NaOH of HCl. Oocytes were recorded under voltage clamp at −40 mV. Final concentrations for control application of glutamate (50 μM) plus glycine (30 μM) were achieved by adding appropriate volumes from 100 and 30 mM stock solutions, respectively. In addition, 10 μM final EDTA was obtained by adding a 1:1000 dilution of 10 mM EDTA, in order to chelate contaminant divalent ions such as Zn^2+. Concentration-response curves for experimental compounds were obtained by applying in successive fashion maximal glutamate/glycine, followed by glutamate/glycine plus variable concentrations of experimental compounds. Dose response curves consisting of 4 to 8 concentrations were obtained in this manner. The baseline leak current at −40 mV was measured before and after recording, and the full recording linearly corrected for any change in leak current. Oocytes with glutamate-evoked responses smaller than 50 nA were not included in the analysis. The level of inhibition by applied experimental compounds was expressed as a percent of the initial glutamate response, and averaged together across oocytes from a single frog. Each experiment consisted of recordings from 3 to 10 oocytes obtained from a single frog. Results from 3-6 experiments were pooled, and the average percent responses at antagonist concentrations were fitted by the equation,
Percent Response=(100−minimum)/(1+([conc]/IC50)^nH)+minimum […]
A general note: Two-electrode voltage clamp is typically applied to oocytes expressing channels or transporters.

The target of data set [4] is T1, human ether-a-go-go potassium channel (hERG) expressed in HEK293 cells (Homo sapiens, UniProt Q12809).
T1 construct: expressed in transfected cells; host or cells: HEK293
As to the kind of experiment: hERG binding by displacement of 3[H]-astemizole. Particulars: 3[H]-astemizole displacement; Ki from IC50 by Cheng and Prusoff. The method, then:
Compounds were evaluated for binding to the human ether-a-go-go potassium channel (hERG) expressed in HEK293 cells by displacement of ^3[H]-astemizole according to the methods by Finlayson et al. (K. Finlayson., L. Turnbull, C. T. January, J. Sharkey, J. S. Kelly; ^3[H]Dofetilide binding to HERG transfected membranes: a potential high throughput preclinical screen. Eur. J. Pharmacol. 2001, 430, 147-148). Compounds were incubated at 1 or 10 μM final concentration, in duplicate, and the amount of displaced ^3[H]-astemizole determined by liquid scintillation spectroscopy. In some cases, a seven concentration (each concentration in duplicate) displacement curve was generated to determine an IC50.
(§1) Binding IC50 values were determined from displacement curves (four-six concentrations, each concentration in duplicate) fit by a non-linear, least squares, regression analysis using MathIQ (ID Business Solutions Ltd., UK). The binding Ki's were determined from the IC50 according to the method of Cheng and Prusoff (Y. Cheng and W. H. Prusoff; Relationship between the inhibition constant (K1) and the concentration of inhibitor which causes 50 percent inhibition (IC50) of an enzymatic reaction. Biochem. Pharmacol. 1973, 22: 3099-3108).
(hERG is a cardiac potassium channel; its block is linked to QT prolongation.)

Data set [5] concerns the target rat alpha-1 adrenergic receptor in rat brain membranes. The data set can be described thus: alpha-1 adrenergic receptor binding by displacement of 3[H]-prazosin. Particulars: 3[H]-prazosin displacement, read-out: α1 IC50. The method, then: Binding to the rat alpha-1 adrenergic receptor in rat brain membranes was determined by displacement of ^3[H]-prazosin (P. Greengrass and R. Bremner; Binding characteristics of 3H-prazosin to rat brain a-adrenergic receptors. Eur. J. Pharmacol. 1979, 55: 323-326). Compounds were incubated at 0.3 or 3 μM final concentration, in duplicate, and the amount of displaced ^3[H]-prazosin determined by liquid scintillation spectroscopy.
as §1

The nature of data set [6]: Oral absorption (p.o. pharmacokinetics, Table 25). In kind it is in vivo, Rats. To be noted: rat, plasma; for bioavailability: read-out: % Absorbed (% F); for AUC(0-t): read-out: AUC (0-last h) p.o.

T1 sequence (Q12809 whole entry): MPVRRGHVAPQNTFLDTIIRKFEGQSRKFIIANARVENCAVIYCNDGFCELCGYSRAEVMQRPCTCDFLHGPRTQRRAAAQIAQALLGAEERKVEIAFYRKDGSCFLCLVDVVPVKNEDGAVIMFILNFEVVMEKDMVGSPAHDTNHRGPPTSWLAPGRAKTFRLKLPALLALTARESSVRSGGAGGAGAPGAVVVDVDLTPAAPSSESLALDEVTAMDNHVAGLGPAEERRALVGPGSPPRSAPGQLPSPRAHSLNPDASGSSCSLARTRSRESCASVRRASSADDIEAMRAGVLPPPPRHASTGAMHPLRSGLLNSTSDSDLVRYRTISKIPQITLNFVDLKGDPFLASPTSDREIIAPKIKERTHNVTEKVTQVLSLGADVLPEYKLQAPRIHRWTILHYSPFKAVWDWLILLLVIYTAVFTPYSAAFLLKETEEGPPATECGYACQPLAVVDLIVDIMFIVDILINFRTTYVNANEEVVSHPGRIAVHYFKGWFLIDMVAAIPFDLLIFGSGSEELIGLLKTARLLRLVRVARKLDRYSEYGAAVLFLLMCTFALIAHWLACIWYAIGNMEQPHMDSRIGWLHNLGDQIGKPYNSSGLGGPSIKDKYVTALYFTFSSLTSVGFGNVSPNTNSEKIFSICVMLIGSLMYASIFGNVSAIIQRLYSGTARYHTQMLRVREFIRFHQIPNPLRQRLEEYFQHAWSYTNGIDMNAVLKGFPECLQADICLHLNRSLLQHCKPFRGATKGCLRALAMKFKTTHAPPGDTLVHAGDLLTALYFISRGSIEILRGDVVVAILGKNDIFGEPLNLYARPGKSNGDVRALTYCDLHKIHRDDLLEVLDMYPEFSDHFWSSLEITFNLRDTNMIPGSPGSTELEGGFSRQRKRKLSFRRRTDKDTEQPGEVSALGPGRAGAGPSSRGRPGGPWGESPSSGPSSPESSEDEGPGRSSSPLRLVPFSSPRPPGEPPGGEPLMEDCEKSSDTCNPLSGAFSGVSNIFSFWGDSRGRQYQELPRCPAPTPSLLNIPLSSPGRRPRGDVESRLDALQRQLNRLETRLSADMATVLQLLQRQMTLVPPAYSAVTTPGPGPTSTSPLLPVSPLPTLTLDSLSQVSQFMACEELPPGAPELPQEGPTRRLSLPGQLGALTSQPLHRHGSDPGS
Chain of NMDA receptor (NR1 + NR2 subunits) (Q00960 27-1482, other chains not shown): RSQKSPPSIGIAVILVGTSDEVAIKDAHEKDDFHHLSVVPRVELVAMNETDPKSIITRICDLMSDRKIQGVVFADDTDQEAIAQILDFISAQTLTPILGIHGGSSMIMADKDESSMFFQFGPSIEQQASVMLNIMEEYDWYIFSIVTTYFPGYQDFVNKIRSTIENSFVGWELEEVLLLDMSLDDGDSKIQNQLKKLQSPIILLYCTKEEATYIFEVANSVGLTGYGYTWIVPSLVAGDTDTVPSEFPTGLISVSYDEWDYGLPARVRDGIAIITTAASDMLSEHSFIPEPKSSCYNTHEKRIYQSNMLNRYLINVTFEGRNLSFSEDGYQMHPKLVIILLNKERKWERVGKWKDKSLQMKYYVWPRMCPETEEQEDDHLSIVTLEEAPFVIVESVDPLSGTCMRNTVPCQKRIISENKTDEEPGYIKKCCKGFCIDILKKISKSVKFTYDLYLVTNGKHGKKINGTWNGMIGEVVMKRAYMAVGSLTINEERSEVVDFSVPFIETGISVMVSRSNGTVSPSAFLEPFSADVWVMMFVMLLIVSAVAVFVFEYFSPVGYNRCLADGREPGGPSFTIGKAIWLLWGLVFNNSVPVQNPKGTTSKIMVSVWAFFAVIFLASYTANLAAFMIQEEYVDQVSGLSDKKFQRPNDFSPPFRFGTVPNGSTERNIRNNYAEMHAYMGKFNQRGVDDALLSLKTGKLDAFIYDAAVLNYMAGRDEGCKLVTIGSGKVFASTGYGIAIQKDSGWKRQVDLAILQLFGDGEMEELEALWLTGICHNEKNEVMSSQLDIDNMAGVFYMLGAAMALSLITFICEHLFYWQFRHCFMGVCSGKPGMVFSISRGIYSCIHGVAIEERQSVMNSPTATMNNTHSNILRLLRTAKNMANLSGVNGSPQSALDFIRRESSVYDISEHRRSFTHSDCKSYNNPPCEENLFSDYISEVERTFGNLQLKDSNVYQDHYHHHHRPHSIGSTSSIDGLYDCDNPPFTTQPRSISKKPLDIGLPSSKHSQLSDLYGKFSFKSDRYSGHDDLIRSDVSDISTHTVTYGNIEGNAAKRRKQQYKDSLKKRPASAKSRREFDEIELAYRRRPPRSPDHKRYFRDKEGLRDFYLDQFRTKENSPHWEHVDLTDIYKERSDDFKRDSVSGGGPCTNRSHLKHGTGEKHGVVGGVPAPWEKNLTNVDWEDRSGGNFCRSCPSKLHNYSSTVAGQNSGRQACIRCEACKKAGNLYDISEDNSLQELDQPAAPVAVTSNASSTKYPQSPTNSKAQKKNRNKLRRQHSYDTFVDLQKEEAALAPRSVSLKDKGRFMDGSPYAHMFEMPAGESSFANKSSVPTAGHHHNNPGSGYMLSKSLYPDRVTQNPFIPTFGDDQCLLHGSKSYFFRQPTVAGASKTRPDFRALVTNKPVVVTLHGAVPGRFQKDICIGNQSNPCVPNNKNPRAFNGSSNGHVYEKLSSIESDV

Take `NC(=O)Nc1ccc(OC[C@@H](O)CN2CCN(c3ccc(Cl)cc3)C2=O)cc1` [drawing 805]: in data set [1], the “RATIO: Brain:plasma (Direct)” value was “Below Detection limit (~0)”. The “BBB Pene Classification” value in data set [2] was “Low”.
One may read the IC50 as the midpoint of a concentration-inhibition curve. The term Ki denotes the dissociation constant of the complex between target and ligand, obtained from inhibition or displacement. In the case of `O=c1[nH]c2ccc(OC[C@@H](O)CN3CCN(c4ccc(Cl)cc4)CC3)cc2[nH]1` [drawing 781], the IC50 was 14 nM in data set [3] (pH 6.9, read-out: IC50 pH 6.9); 103 nM in data set [3] (pH 7.6, read-out: IC50 pH 7.6); roughly 350 nM in data set [5]. The compound further yielded a Ki in data set [4] of roughly 7500 nM.
On the same counts, the results for `O=c1ccc2cc(OC[C@@H](O)CN3CCN(c4ccc(Cl)cc4)CC3)ccc2[nH]1` are 69 nM, 550 nM, roughly 350 nM and roughly 7500 nM.
On the same counts, the results for `O[C@H](COc1ccc2[nH]c(=S)[nH]c2c1)CN1CCN(c2ccc(Cl)cc2)CC1` are 16 nM, 76 nM, roughly 150 nM and roughly 7500 nM.
As usually defined, the Cmax is the highest concentration seen after dosing. As a reminder, the Tmax is the time at which the peak concentration occurs. For `Cc1ccc(N2CCN(C[C@H](O)COc3ccc4c(c3)CCC(=O)N4)CC2)cc1` [drawing 812], in data set [6] (5 mg/kg, 5 MPK, 0-6 hr p.o.), the peak level (Cmax) was 407 ng/mL, the Tmax was 0.33 h, the bioavailability was determined as 31.6% and the AUC(0-t) amounted to 549 ng·h/mL.
`O=C1Cc2cc(OC[C@@H](O)CN3CCN(c4ccc(Cl)cc4)CC3)ccc2N1`: the IC50 is 370 nM in data set [3] (pH 6.9, read-out: IC50 pH 6.9); 29 nM in data set [3] (pH 7.6, read-out: IC50 pH 7.6); roughly 100 nM in data set [5]. This compound had a Ki in data set [4] of roughly 10000 nM.
As to `O[C@H](COc1ccc2[nH]ncc2c1)CN1CCN(c2ccc(Cl)cc2)CC1`, the IC50 in data set [3] (pH 6.9, read-out: IC50 pH 6.9) is 410 nM; in data set [3] (pH 7.6, read-out: IC50 pH 7.6), 3830 nM; in data set [5], roughly 300 nM. Also, in data set [4], the Ki is roughly 1000 nM.
The like results for `NC(=O)Nc1ccc(OC[C@@H](O)CN2CCN(c3ccc(Cl)cc3)CC2)cc1` [drawing 778] were, in that order, 46 nM, 452 nM, 340 nM and 13000 nM.
For the compound `NC(=O)Nc1ccc(OC[C@@H](O)CN2CCN(c3ccc(Cl)cc3)CC2)cc1` [drawing 810], in data set [6] (10 mg/kg, 10 MPK, 0-8 hr p.o.), the highest level (Cmax) was 1560 ng/mL, the Tmax turned out to be 2.67 h, the bioavailability worked out at 146% and the AUC(0-t) came out at 8450 ng·h/mL.
Regarding `O=c1[nH]c2ccc(OC[C@@H](O)CN3CCN(c4ccc(F)c(F)c4)CC3)cc2[nH]1` [drawing 811], in data set [6] (5 mg/kg, 5 MPK, 0-6 hr p.o.), the concentration peaked (Cmax) at 558 ng/mL, the Tmax came out at 0.5 h, the bioavailability was determined as 82.2% and the AUC(0-t) is 1860 ng·h/mL.
Take `O=c1[nH]c2ccc(OC[C@@H](O)CN3CCN(c4ccc(Cl)cc4)CC3)cc2o1` [drawing 776]: the IC50 came to 51 nM in data set [3] (pH 6.9, read-out: IC50 pH 6.9); 447 nM in data set [3] (pH 7.6, read-out: IC50 pH 7.6); 620 nM in data set [5]. Further, affinity in data set [4] was put at a Ki of 1600 nM.
Take `CS(=O)(=O)Nc1ccc(OC[C@@H](O)CN2CCN(c3ccc(Cl)cc3)CC2)cc1`: the IC50 in data set [3] (pH 6.9, read-out: IC50 pH 6.9) is 32 nM; in data set [3] (pH 7.6, read-out: IC50 pH 7.6), 270 nM; in data set [5] it was 350 nM. This compound returned a Ki in data set [4] of 553 nM.
The like results for `Oc1ccc(OC[C@@H](O)CN2CCN(c3ccc(Cl)cc3)CC2)cc1` [drawing 775] were, in that order, 74 nM, 555 nM, 720 nM and 39000 nM.
Regarding `O=c1[nH]c2ccc(OC[C@@H](O)CN3CCN(c4ccc(Cl)cc4)CC3)cc2o1` [drawing 814], in data set [6] (10 mg/kg, 10 MPK, 0-8 hr p.o.), the Cmax came out at 30.6 ng/mL, the Tmax is 8 h, the bioavailability is 6.2% and the AUC(0-t) amounted to 132 ng·h/mL.
The like results for `Oc1ccc(OC[C@@H](O)CN2CCN(c3ccc(Cl)cc3)CC2)cc1` [drawing 815] were, in that order, 10.2 ng/mL, 5.3 h, 3.3% and 56.4 ng·h/mL.
Consider `O=C1CCc2cc(OC[C@@H](O)CN3CCN(c4ccc(Cl)cc4)CC3)ccc2N1`, for which the IC50 in data set [3] (pH 6.9, read-out: IC50 pH 6.9) was 12 nM; in data set [3] (pH 7.6, read-out: IC50 pH 7.6), 66 nM; in data set [5] it was roughly 100 nM. Moreover, the inhibitory constant (Ki) in data set [4] was roughly 5000 nM.
